Experimental data: patent US20230414560A1, “COMPOSITIONS AND METHODS FOR TREATING ECZEMA” (General Nutraceutical Technology LLC, priority 2022, published 2023)
≈ marks a conversion by molar mass, not a printed value. Read-outs that look alike come from different tables or passages of the source.

Key:
[1] = cited from earlier work
IgE = IgE production by U266 myeloma cells (ELISA); type: cell-based, Human
Procedure: (§1) Human U266 myeloma cells were cultured in complete media containing RPMI-1640 medium with 10% fetal bovine serum (FBS), 0.5% penicillin-streptomycin, 1×10^−5 mol/L of 0-mercaptoethanol, and 1 mmol/L of sodium pyruvate at 37° C. in an incubator with 5% CO2. U266 cells were cultured at initial 2×10^5 cell/mL with SZT-I or active compounds at different concentration. Then the supernatants were collected after 6 days. The level of IgE was. measured by an enzyme-linked immunosorbent assay (ELISA) kit according to the manufacturer's instructions. RAW 264.7 murine macrophages (5×10^5 cell/mL) were cultured in DMEM medium supplemented with 10% FBS, and 0.5% penicillin-streptomycin at 37° C. under 5% CO2. SZT-I or active compounds at different concentrations and LPS (0.5 μg/mL) added to cells. Supernatants were harvested after 24 h and analyzed by ELISA for TNF-α (Mabtech, In vitro studies-Cell viability Inc, Cincinnati, Ohio). Eotaxin inhibitory assays were conducted by using human fetal lung fibroblast (HFL-1) cells. HFL-1 (CCL-153) cells were grown in F-12K medium (ATCC, Rockville, MD) containing 10% fetal bovine serum (Gibco BRL, Grand Island, NY) and 1% penicillin-streptomycin (BD Bio, San Jose, CA). […] Eotaxin levels were determined by using ELISA (R&D Systems) according to the directions of the manufacturer.

TNF-α [2] = experiment: RT-PCR mRNA expression of hub target TNF-α after LPS; type: cell-based, murine; conditions: after LPS stimulation
Procedure: (§2) Expressions of targets were measured by RT-PCR. After treatment, total RNA was collected from the esophagus. Reverse transcription was conducted to obtain the cDNA. The RT-PCR amplification was performed using SYBRTM Green Master Mix with primers. The primer sequences were listed as follows: m-TNF-α: F-[…] (SEQ ID NO: 3); R-[…] (SEQ ID NO: 4). m-Bcl2: F-[…] (SEQ ID NO: 5); R-[…] (SEQ ID NO: 6). m-IL1B: F-[…] (SEQ ID NO: 7); R-[…] TGTGTG (SEQ ID NO: 8). m-PPARG: F-[…] (SEQ ID NO: 9); R-[…] (SEQ ID NO: 10).

IL1B = experiment: RT-PCR mRNA expression of hub target IL1B after LPS; type: cell-based, murine; conditions: after LPS stimulation
Procedure: as §2

PPARG = experiment: RT-PCR mRNA expression of hub target PPARG after LPS; type: cell-based, murine; conditions: inhibited by LPS
Procedure: as §2

TNF-α [3] = experiment: TNF-α production by LPS-stimulated RAW 264.7 cells (ELISA); type: cell-based, murine
Procedure: as §1

Bcl2 = experiment: RT-PCR mRNA expression of hub target Bcl2 after LPS; type: cell-based, murine; conditions: Raw cells
Procedure: as §2

U266 cells = experiment: U266 cell viability (trypan blue exclusion); type: cell-based, Human; conditions: at the concentrations reducing IgE
Procedure: (§3) Cell viability of U266 was measured by trypan blue exclusion (Yang, Patil, et al., 2013). Cell suspension (10 uL) was mixed with trypan blue dye (10 uL), and viable cells and total cells counted with a hemocytometer. The cell viability was calculated using the equation: cell viability=(total number of viable cells)/(total number of cells). The viability of Raw 264.7 was evaluated using the MTT assay carried out as previously described (Liu, C. et al., 2015, Phytother Res, 29(6), 925-932). Cells were seeded into a 96-well plate at 2×10^4 cells/well, then different concentrations of SZT-I or active compounds were added to the plate. After 24 h, 50 μL MTT (2.0 mg/mL) was added to wells and the plate was incubated for a further 3 h. The supernatant was discarded, and the generated formazan was dissolved in dimethyl sulfoxide (DMSO) (200 μL). The absorbance of wells was detected at 590 nm.

Raw 264.7 cells = experiment: Raw 264.7 cytotoxicity (MTT assay); type: cell-based, murine; conditions: luteolin concentrations tested
Procedure: as §3

Compound	O.B. (oral bioavailability) ([1]; TCMSP database, Table 1)	also measured
COc1cc2oc3c4c(O)cc(O)cc4oc(=O)c3c2cc1OC [1,3-dihydroxy-8,9-dimethoxy-6-benzofurano[3,2-c]chromenone]	62.9	–
COc1cc(O)cc2c1[C@@H]1Oc3c(ccc(O)c3CC=C(C)C)[C@@H]1CO2 [1-Methoxyphaseol-lidin]	69.98	–
CC(C)=CCc1c(O)cc(O)c2c(=O)c(-c3ccc(O)c(O)c3)coc12 [3-(3,4-dihydroxyphenyl)-5,7-dihydroxy-8-(3-methylbut-2-enyl)chromone]	66.37	–
CCCCC/C=C/C/C=C/CCCCCCCCCC(=O)O [11,14-eicosadienoic acid]	39.99	–
O=C1C[C@H](c2ccc(O)cc2)Oc2cc(O)ccc21 [(2R)-7-hydroxy-2-(4-hydroxyphenyl) chroman-4-one]	71.12	–
C=C(C)[C@@H]1CC[C@]2(C(=O)O)CC[C@]3(C)[C@H](CC[C@@H]4[C@@]5(C)CC[C@H](O)C(C)(C)[C@@H]5CC[C@]43C)[C@@H]12 [Betulinic acid]	55.38	–
COc1cc(-c2cc(=O)c3c(O)cc(O)cc3o2)ccc1O [Chryseriol]	35.85	–
Oc1cc(O)c2c(c1)O[C@H](c1ccc(O)c(O)c1)[C@@H](O)C2 [Cianidanol]	36.91	–
CC/C=C/C/C=C/C/C=C/CCCCCCCC(=O)OCC [Ethyl linolenate]	46.1	–
CCCCCCCC/C=C\CCCCCCCC(=O)OCC [Ethyl oleate]	32.4	–
COc1ccc(-c2coc3cc(O)ccc3c2=O)cc1 [Formononetin]	69.67	–
CC1(C)C=Cc2c(ccc3c2OC[C@@H](c2ccc(O)cc2O)C3)O1 [Glabridin]	53.25	–
CC1(C)C=Cc2c(ccc(-c3coc4cc(O)ccc4c3=O)c2O)O1 [Glabrone]	52.51	–
COc1c(CC=C(C)C)c(O)cc2oc(=O)c3c4ccc(O)cc4oc3c12 [Glycyrol]	90.78	–
COc1ccc(C(=O)/C=C/c2ccc(O)cc2OC)cc1 [Glypallichalcone]	61.6	–
O=C1/C(=C2\Nc3ccccc3C2=O)Nc2ccccc21 [Indigo]	38.2	–
O=c1c(O)c(-c2ccc(O)cc2)oc2cc(O)cc(O)c12 [Kaempferol]	41.88	–
CC1(C)C=Cc2c(ccc3cc(-c4ccc(O)cc4O)c(=O)oc23)O1 [Kanzonols W]	50.48	–

Compound	O.B. (oral bioavailability) ([1]; TCMSP database, Table 1)	also measured
COc1c(/C=C/C(=O)c2ccc(O)cc2)ccc(O)c1O [Licochalcone B]	76.76	–
CC(C)=CCc1c(O)cc(O)c2c(=O)c(-c3ccc(O)cc3)coc12 [Lupiwighteone]	51.64	–
O=c1cc(-c2ccc(O)c(O)c2)oc2cc(O)cc(O)c12 [Luteolin]	–	production of IgE (IgE; 10 μg/mL): strongly diminished; IC50 (IgE; Homo sapiens, U-266, 144 h, 6 days): ~4.81 µg/mL (≈ 16.8 µM); mRNA expression of TNF-α (TNF-α [2]): reversed; mRNA expression of IL1B (IL1B): reversed; mRNA expression of PPARG (PPARG): upregulated; IC50 (TNF-α [3]; Mus musculus, RAW264.7, Raw 264.7 cells, LPS 0.5 μg/mL, 24 h): 5.61 µg/mL (≈ 19.6 µM); production of TNF-α compared with quercetin and kaempferol (TNF-α [3]; Raw 264.7 cells stimulated by LPS, 20 μg/mL): significantly inhibited; mRNA expression of Bcl2 (Bcl2): increased the expression of Bcl2 significantly; cytotoxicity on U266 (U266 cells): without cytotoxicity; OB (oral bioavailability) ([1]; TCMSP database): 36.16%; cell toxicity on Raw 264.7 (Raw 264.7 cells): no significant cell toxicity
CCCCC/C=C\C/C=C\CCCCCCCC(=O)OCC [Mandenol]	42	–
C=C(CC[C@@H](C(=O)O)[C@H]1[C@H](O)C[C@@]2(C)C3=C(CC[C@]12C)[C@@]1(C)CC[C@H](OC(C)=O)C(C)(C)[C@@H]1CC3)C(C)C [Pachymic acid]	33.63	–
O=c1c(O)c(-c2ccc(O)c(O)c2)oc2cc(O)cc(O)c12 [Quercetin]	46.43	–
CC(C)=CC[C@H](O)C1=CC(=O)c2c(O)ccc(O)c2C1=O [Shikonin]	64.79	–
CCC(/C=C/[C@H](C)[C@@H]1CC[C@@H]2[C@@H]3CC=C4C[C@@H](O)CC[C@]4(C)[C@@H]3CC[C@@]21C)C(C)C (stereo partly shown) [ZINC03978781]	43.83	–
CN1CCc2cc3c(cc2[C@H]1[C@H]1OC(=O)c2c1ccc1c2OCO1)OCO3 [bicuculline]	69.67	–
CC(C)=CCc1c(O)cc2c(c1O)C=C(c1ccc(O)cc1O)CO2 [dehydroglyasperins C]	53.82	–
O=C1C[C@@H](c2ccc(O[C@@H]3O[C@H](CO)[C@@H](O)[C@H](O)[C@H]3O)cc2)Oc2cc(O)ccc21 [liquiritin]	65.69	–
C[C@@]12C[C@@]3(O)O[C@H](O1)[C@@]1(COC(=O)c4ccccc4)[C@@H]3C[C@]12O[C@@H]1O[C@H](CO)[C@H](O)[C@H](O)[C@@H]1O [paeoniflorin_qt]	68.18	–
COc1c(O)cc(O)c2c(=O)cc(-c3ccccc3)oc12 [wogonin]	30.68	–
CC1=C(/C=C/C(C)=C/C=C/C(C)=C/C=C/C=C(C)/C=C/C=C(C)/C=C/C2=C(C)CCCC2(C)C)C(C)(C)CCC1 [β-carotene]	37.18	–
Sitosterol	36.91	OB (oral bioavailability) ([1]; TCMSP database): 36.91%
Stigmasterol	43.83	OB (oral bioavailability) ([1]; TCMSP database): 43.83%
β-amyrin acetate	–	O.B. (oral bioavailability) ([1]; po): 42.06
β-sitosterol	36.91	OB (oral bioavailability) ([1]; TCMSP database): 36.91%
